Data published in US5602102A, “Dipeptidyl peptidase-I inhibitors and uses thereof” (Board of Regents, The Univ. of TX System, priority 1992, dated 1997).
Read-outs that look alike come from different tables or passages of the source. *1 amine or outer side, *2 acyl side, *3 side chain or, on linkers, in order; H or OH if unused. Where a SMILES comes first, the peptide text is derived from it. The star is where a group is joined. pNA = O=[N+]([O-])c1ccc(N*)cc1; AMC = Cc1cc(=O)oc2cc(N*)ccc12; Suc = O=C(CCC(=O)[*:2])[*:1]; βNA = c1ccc2cc(N*)ccc2c1; Cbz = O=C(OCc1ccccc1)*

Experiments:
[1] = target: human dipeptidyl peptidase-I (Homo sapiens, UniProt P53634); experiment: Effect of protease inhibitors on DPPI activity (purified enzyme); type: biochemical; design: Human DPPI is now established to constitute a 200,000 Da glycoprotein with 24,000 Da subunits; from tissue; host or cells: human cadaveric spleen
Chain of human dipeptidyl peptidase-I (P53634 231-394 limits assumed): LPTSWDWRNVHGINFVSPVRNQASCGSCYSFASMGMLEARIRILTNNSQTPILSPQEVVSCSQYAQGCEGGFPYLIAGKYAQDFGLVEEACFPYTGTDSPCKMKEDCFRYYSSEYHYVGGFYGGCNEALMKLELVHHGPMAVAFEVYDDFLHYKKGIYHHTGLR
Chain of human dipeptidyl peptidase-I (P53634 25-134 limits assumed): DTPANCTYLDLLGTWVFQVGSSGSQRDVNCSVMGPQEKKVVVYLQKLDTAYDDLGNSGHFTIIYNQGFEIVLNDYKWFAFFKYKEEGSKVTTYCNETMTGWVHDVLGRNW
Chain of human dipeptidyl peptidase-I (P53634 395-463 limits assumed): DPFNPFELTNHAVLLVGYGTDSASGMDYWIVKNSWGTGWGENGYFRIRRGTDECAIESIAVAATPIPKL
Method: Note. Purified human dipeptidyl peptidaseI (0.4 μg) was preincubated
with each of the inhibitors at the stated concentration for 15 min at
37° C.. Each sample was diluted 3fold with assay buffer containing
substrate and incubated for an additional 20 min.

DPPI = DPPI (Homo sapiens, UniProt P53634); experiment: Substrate specificity of human DPPI: hydrolysis of synthetic peptide substrates; type: biochemical; design: Human DPPI is now established to constitute a 200,000 Da glycoprotein with 24,000 Da subunits; from tissue; host or cells: human cadaveric spleen; unit not given here
Chain of DPPI (P53634 231-394 limits assumed): as the sequence (P53634 231-394 limits assumed) above
Chain of DPPI (P53634 25-134 limits assumed): as the sequence (P53634 25-134 limits assumed) above
Chain of DPPI (P53634 395-463 limits assumed): as the sequence (P53634 395-463 limits assumed) above
Source text: The specificity of human DPPI was studied using a variety of synthetic peptide substrates. These substrates appear in Table 5.
Substrates with blocked amino-termini, with proline at the P1 position, arginine at the P2, or containing only single amino acids, were not hydrolyzed. […] The amino-terminal sequence of bovine α-casein, Arg--Pro, prohibits the processive cleavage of amino-terminal dipeptides from this protein and therefore should increase the ability to specifically detect endoproteolytic activity, if present.

SMILES	hydrolysis of substrate peptide by human DPPI (DPPI; substrate concentration 100 μM)	hydrolysis of substrate peptide by human DPPI (DPPI; substrate concentration 500 μM)	also measured
c1cnc2c(c1)ccc1cccnc12 [1,10-Phenanthroline]	–	–	remaining activity at 1000 µM ([1]; inhibitor 1 mM, preincubated 15 min at 37° C., read-out: Percentage control activity): 98%
c1ccc(SSc2ccccn2)nc1 [2,2'-Dithiodipyridine]	–	–	remaining activity at 400 µM ([1]; inhibitor 400 μM, preincubated 15 min at 37° C., read-out: Percentage control activity): 9%; effect on DPPI activity (in words) ([1]; screening conditions pH 5.5): inhibited
CC(N)C(=O)NC(C)C(=O)NC(C(=O)NC(C)C(=O)Nc1ccc([N+](=O)[O-])cc1)C(C)C (stereo not drawn) [Ala-Ala-Val-Ala-pNA] (H-AAVA-pNA; configuration not given here)	120	120	–
C[C@H](N)C(=O)N[C@@H](C)C(=O)Nc1ccc([N+](=O)[O-])cc1 [Ala-Ala-pNA] (H-Ala-Ala-pNA)	380	1000	–
N=C(N)NCCC[C@H](NC(=O)[C@@H](N)CCCNC(=N)N)C(=O)Nc1ccc2ccccc2c1 [Arg-Arg-βNA] (H-Arg-Arg-βNA)	0	0	–
CC(C)C[C@H](NC(=O)[C@@H](O)[C@H](N)Cc1ccccc1)C(=O)O [Bestatin]	–	–	remaining activity at 500 µg/mL ([1]; inhibitor 500 μg/ml, preincubated 15 min at 37° C., read-out: Percentage control activity): 103%; effect on DPPI activity (in words) ([1]; screening conditions pH 5.5): no effect
NC(N)=NCCC[C@H](NC(=O)OCc1ccccc1)C(=O)N[C@@H](CCCN=C(N)N)C(=O)Nc1ccc2ccccc2c1 [CBZ-Arg-Arg-βNA] (Cbz-Arg-Arg-βNA)	0	0	–
Cc1cc(=O)oc2cc(NC(=O)[C@H](CCCN=C(N)N)NC(=O)[C@@H]3CCCN3C(=O)CNC(=O)OCc3ccccc3)ccc12 [CBZ-Gly-Pro-Arg-AMC] (Cbz-Gly-Pro-Arg-{AMC})	0	0	–
Cc1cc(=O)oc2cc(NC(=O)C(CCCCN)NC(=O)OCc3ccccc3)ccc12 (centres unmarked) [CBZ-Lys-AMC]	0	0	–
COc1cc(NC(=O)[C@H](CCCN=C(N)N)NC(=O)[C@H](CC(C)C)NC(=O)[C@@H](NC(=O)OCc2ccccc2)C(C)C)cc2ccccc12 [CBZ-Val-Leu-Arg-MNA]	0	0	–
COc1cc(NC(=O)C(CCCN=C(N)N)NC(=O)CN)cc2ccccc12 (stereo not drawn) [Gly-Arg-MNA]	2500	4750	–
Cc1cc(=O)oc2cc(NC(=O)[C@H](Cc3ccccc3)NC(=O)CN)ccc12 [Gly-Phe-AMC] (H-Gly-Phe-{AMC})	3500	6120	–
NCC(=O)N[C@@H](Cc1ccccc1)C(=O)Nc1ccc([N+](=O)[O-])cc1 [Gly-Phe-pNA] (H-Gly-Phe-pNA)	120	380	–
COc1cc(NC(=O)[C@@H]2CCCN2C(=O)CN)cc2ccccc12 [Gly-Pro-MNA]	0	0	–
O=C(O)CI [Iodoacetic acid]	–	–	effect on DPPI activity (in words) ([1]; pH 5.5): potently inhibited; remaining activity at 1000 µM ([1]; read-out: Percentage control activity): 10%
COC([CH2][Hg+])CNC(=O)c1ccccc1OCC(=O)O.[OH-] (centres unmarked) [Mersalyl acid]	–	–	Percentage control activity ([1]; inhibitor 1 mM, preincubated 15 min at 37° C.): 3%; effect on DPPI activity (in words) ([1]; screening conditions pH 5.5): potently inhibited
Cc1cc(=O)oc2cc(NC(=O)[C@H](CCCN=C(N)N)NC(=O)[C@H](Cc3ccccc3)NC(=O)[C@@H]3CCCN3)ccc12 [Pro-Phe-Arg-AMC] (H-Pro-Phe-Arg-{AMC})	0	0	–
COc1cc(NC(=O)C(Cc2ccc(O)cc2)NC(=O)C(N)CO)cc2ccccc12 (stereo not drawn) [Ser-Tyr-MNA]	1000	1750	–
C[C@H](NC(=O)CCC(=O)O)C(=O)N[C@@H](C)C(=O)N[C@@H](C)C(=O)Nc1ccc([N+](=O)[O-])cc1 [Suc-Ala-Ala-Ala-pNA]	0	0	–
C[C@H](NC(=O)CCC(=O)O)C(=O)N[C@@H](C)C(=O)N1CCC[C@H]1C(=O)N[C@@H](Cc1ccccc1)C(=O)Nc1ccc([N+](=O)[O-])cc1 [Suc-Ala-Ala-Pro-Phe-pNA] (Suc-AAPF-pNA)	0	0	–

Further lines, with some results ahead:

hydrolysis of substrate peptide by human DPPI (DPPI; substrate concentration 100 μM)	hydrolysis of substrate peptide by human DPPI (DPPI; substrate concentration 500 μM)	SMILES	also measured
0	0	C[C@H](N)C(=O)Nc1ccc2ccccc2c1 [Ala-βNA]	–
0	0	NC(N)=NCCC[C@H](N)C(=O)Nc1ccc2ccccc2c1 [Arg-βNA]	–
250	1000	C[C@H](NC(=O)[C@@H](N)CC(=O)O)C(=O)Nc1ccc2ccccc2c1 [Asp-Ala-βNA] (H-Asp-Ala-βNA)	–
0	0	N=C(N)NCCCC(NC(=O)OCc1ccccc1)C(=O)Nc1ccc2ccccc2c1 (centres unmarked) [CBZ-Arg-βNA]	–
0	0	O=C(NC(Cc1ccccc1)C(=O)Nc1ccc2ccccc2c1)OCc1ccccc1 (centres unmarked) [CBZ-Phe-βNA]	–
3500	5750	COc1cc(NC(=O)C(Cc2ccccc2)NC(=O)CN)cc2ccccc12 (stereo not drawn) [Gly-Phe-MNA]	–
2380	4380	NCC(=O)N[C@@H](Cc1ccccc1)C(=O)Nc1ccc2ccccc2c1 [Gly-Phe-βNA] (H-Gly-Phe-βNA)	–
0	0	NCC(=O)N1CCC[C@H]1C(=O)Nc1ccc2ccccc2c1 [Gly-Pro-βNA] (H-Gly-Pro-βNA)	–
0	0	NCC(=O)Nc1ccc2ccccc2c1 [Gly-βNA]	–
0	0	CC(C)C[C@H](N)C(=O)Nc1ccc2ccccc2c1 [Leu-βNA]	–
0	0	N[C@@H](Cc1ccccc1)C(=O)Nc1ccc2ccccc2c1 [Phe-βNA]	–
0	0	O=C(Nc1ccc2ccccc2c1)[C@@H]1CCCN1 [Pro-βNA]	–
1750	2000	N[C@@H](CO)C(=O)N[C@@H](Cc1ccc(O)cc1)C(=O)Nc1ccc2ccccc2c1 [Ser-Tyr-βNA] (H-Ser-Tyr-βNA)	–
